Measurements taken from patent US20230295234A1, “ANTIMICROBIAL PEPTIDOMIMETICS” (SPEXIS AG, priority 2020, published 2023).
Bridge positions count the residues as written; N and C are the ends. Square brackets hold non-standard residues; d marks the D form. Peptide text beside a SMILES is read from it. dDab = NCC[C@@H](N)C(=O)O; Dab = NCC[C@H](N)C(=O)O; Nlys = NCCCCNCC(=O)O

Assays:
[1] = system: Escherichia coli MCR-1 Af 45; settings: MCR-1 Af 45
In short: (§1)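 Peptides were made up as 1 mg/mL stocks in sterile water. Colonies in 0.85% saline were set to 0.5 McFarland, then diluted in cation-adjusted Mueller-Hinton II broth to about 5×10^5 CFU/mL. Inoculum was combined with two-fold serial peptide dilutions in water containing 0.002% (final) polysorbate 80.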

[2] = system: Escherichia coli ATCC 25922; settings: ATCC 25922
In short: as §1

[3] = system: Klebsiella pneumoniae SSI3010; settings: SSI3010
In short: as §1

[4] = system: human red blood cells (hRBC); experiment: Hemolysis of human red blood cells; assay type: cell-based; settings: red cells of human, 1 h
In short: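 Percent hemolysis is OD540 of peptide-treated supernatant relative to water-lysed cells. Each peptide was tested at 200 μg/mL against 20% (v/v) washed human erythrocytes. Incubation was 1 h at 37 °C, 300 rpm.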

| SMILES | Escherichia coli MCR-1 Af 45 MIC [1] | Escherichia coli ATCC 25922 MIC [2] | Klebsiella pneumoniae SSI3010 MIC [3] | Hemolysis at 0.2 g/L [4] |
| --- | --- | --- | --- | --- |
| CC[C@H](C)[C@H](NC(=O)[C@@H](NC(=O)[C@@H]1CCCN1C(=O)[C@@H](NC(=O)[C@@H]1CCCN1C(=O)[C@H](CCCCN)NC(=O)[C@@H](N)CCCCN)C(C)C)[C@@H](C)CC)C(=O)N[C@@H](Cc1ccc(O)cc1)C(=O)N[C@H]1CSSC[C@@H](C(=O)N[C@@H](CCN)C(=O)N[C@@H](CCCNC(=N)N)C(=O)N[C@@H](Cc2ccc(O)cc2)C(=O)O)NC(=O)[C@H](CCCCN)NC(=O)[C@@H](CCN)NC(=O)[C@H]([C@@H](C)O)NC(=O)[C@H](CCN)NC(=O)CN(CCCNC(=N)N)C(=O)[C@H](CC(N)=O)NC1=O [Example 104] (HELM PEPTIDE1{K.K.P.V.P.I.I.Y.C.N.[N=C(N)NCCCN(CC(=O)[*:2])[*:1]].[Dab].T.[NCC[C@@H](N[*:1])C(=O)[*:2]].K.C.[Dab].R.Y}$PEPTIDE1,PEPTIDE1,9:R3-16:R3$$$V2.0; N-terminus assumed) | 0.125 mg/L | 0.25 mg/L | 0.125 mg/L | 0% |
| CC[C@H](C)[C@H](NC(=O)[C@@H](NC(=O)[C@@H]1CCCN1C(=O)[C@@H](NC(=O)[C@@H]1CCCN1C(=O)[C@H](CCCCN)NC(=O)[C@@H](N)CCCCN)C(C)C)[C@@H](C)CC)C(=O)N[C@@H](Cc1ccc(O)cc1)C(=O)N[C@H]1CSSC[C@@H](C(=O)N[C@@H](CCN)C(=O)N[C@@H](CCCNC(=N)N)C(=O)N[C@@H](Cc2ccc(O)cc2)C(=O)O)NC(=O)[C@H](CCCCN)NC(=O)[C@@H](CCN)NC(=O)[C@H]([C@@H](C)O)NC(=O)CN(CCCCN)C(=O)[C@H](CCCNC(=N)N)NC(=O)[C@H](CC(N)=O)NC1=O [Example 105] (HELM PEPTIDE1{K.K.P.V.P.I.I.Y.C.N.R.[NCCCCN(CC(=O)[*:2])[*:1]].T.[NCC[C@@H](N[*:1])C(=O)[*:2]].K.C.[Dab].R.Y}$PEPTIDE1,PEPTIDE1,9:R3-16:R3$$$V2.0) | 0.0625 mg/L | 0.125 mg/L | 0.125 mg/L | 0% |
| CC[C@H](C)[C@H](NC(=O)[C@@H](NC(=O)[C@@H]1CCCN1C(=O)[C@@H](NC(=O)[C@@H]1CCCN1C(=O)[C@H](CCCCN)NC(=O)[C@@H](N)CCCCN)C(C)C)[C@@H](C)CC)C(=O)N[C@@H](Cc1ccc(O)cc1)C(=O)N[C@H]1CSSC[C@@H](C(=O)N[C@@H](CCN)C(=O)N[C@@H](CCCNC(=N)N)C(=O)N[C@@H](Cc2ccc(O)cc2)C(=O)O)NC(=O)[C@H](CCCCN)NC(=O)[C@@H](CCN)NC(=O)[C@H]([C@@H](C)O)NC(=O)CN(CCCN)C(=O)[C@H](CCCNC(=N)N)NC(=O)[C@H](CC(N)=O)NC1=O [Example 106] (HELM PEPTIDE1{K.K.P.V.P.I.I.Y.C.N.R.[NCCCN(CC(=O)[*:2])[*:1]].T.[NCC[C@@H](N[*:1])C(=O)[*:2]].K.C.[Dab].R.Y}$PEPTIDE1,PEPTIDE1,9:R3-16:R3$$$V2.0; N-terminus assumed) | 0.125 mg/L | 0.25 mg/L | 0.125 mg/L | 0% |
| CC[C@H](C)[C@H](NC(=O)[C@@H](NC(=O)[C@@H]1CCCN1C(=O)[C@@H](NC(=O)[C@@H]1CCCN1C(=O)[C@H](CCCCN)NC(=O)[C@@H](N)CCCCN)C(C)C)[C@@H](C)CC)C(=O)N[C@@H](Cc1ccc(O)cc1)C(=O)N[C@H]1CSSC[C@@H](C(=O)N[C@@H](CCN)C(=O)N[C@@H](CCCNC(=N)N)C(=O)N[C@@H](Cc2ccc(O)cc2)C(=O)O)NC(=O)[C@H](CCCCN)NC(=O)[C@@H](CCN)NC(=O)[C@H]([C@@H](C)O)NC(=O)CN(CCN)C(=O)[C@H](CCCNC(=N)N)NC(=O)[C@H](CC(N)=O)NC1=O [Example 107] (HELM PEPTIDE1{K.K.P.V.P.I.I.Y.C.N.R.[NCCN(CC(=O)[*:2])[*:1]].T.[NCC[C@@H](N[*:1])C(=O)[*:2]].K.C.[Dab].R.Y}$PEPTIDE1,PEPTIDE1,9:R3-16:R3$$$V2.0; N-terminus assumed) | 0.25 mg/L | 0.25 mg/L | 0.25 mg/L | 0% |
| CC[C@H](C)[C@H](NC(=O)[C@@H](NC(=O)[C@@H]1CCCN1C(=O)[C@@H](NC(=O)[C@@H]1CCCN1C(=O)[C@H](CCCCN)NC(=O)[C@@H](N)CCCCN)C(C)C)[C@@H](C)CC)C(=O)N[C@@H](Cc1ccc(O)cc1)C(=O)N[C@H]1CSSC[C@@H](C(=O)N[C@@H](CCN)C(=O)N(CCCN)CC(=O)N[C@@H](Cc2ccc(O)cc2)C(=O)O)NC(=O)[C@H](CCCCN)NC(=O)[C@@H](CCN)NC(=O)[C@H]([C@@H](C)O)NC(=O)[C@H](CCN)NC(=O)[C@H](CCCNC(=N)N)NC(=O)[C@H](CC(N)=O)NC1=O [Example 108] (HELM PEPTIDE1{K.K.P.V.P.I.I.Y.C.N.R.[Dab].T.[NCC[C@@H](N[*:1])C(=O)[*:2]].K.C.[Dab].[NCCCN(CC(=O)[*:2])[*:1]].Y}$PEPTIDE1,PEPTIDE1,9:R3-16:R3$$$V2.0) | ≤0.03125 mg/L | 0.125 mg/L | 0.0625 mg/L | 0% |
| CC[C@H](C)[C@H](NC(=O)[C@@H](NC(=O)[C@@H]1CCCN1C(=O)[C@@H](NC(=O)[C@@H]1CCCN1C(=O)[C@H](CCCCN)NC(=O)[C@@H](N)CCCCN)C(C)C)[C@@H](C)CC)C(=O)N[C@@H](Cc1ccc(O)cc1)C(=O)N[C@H]1CSSC[C@@H](C(=O)N[C@@H](CCN)C(=O)N(CCCCN)CC(=O)N[C@@H](Cc2ccc(O)cc2)C(=O)O)NC(=O)[C@H](CCCCN)NC(=O)[C@@H](CCN)NC(=O)[C@H]([C@@H](C)O)NC(=O)[C@H](CCN)NC(=O)[C@H](CCCNC(=N)N)NC(=O)[C@H](CC(N)=O)NC1=O [Example 109] (HELM PEPTIDE1{K.K.P.V.P.I.I.Y.C.N.R.[Dab].T.[NCC[C@@H](N[*:1])C(=O)[*:2]].K.C.[Dab].[NCCCCN(CC(=O)[*:2])[*:1]].Y}$PEPTIDE1,PEPTIDE1,9:R3-16:R3$$$V2.0) | 0.0625 mg/L | 0.0625 mg/L | 0.125 mg/L | 0% |
| CC[C@H](C)[C@H](NC(=O)[C@@H](NC(=O)[C@@H]1CCCN1C(=O)[C@@H](NC(=O)[C@@H]1CCCN1C(=O)[C@H](CCCCN)NC(=O)[C@@H](N)CCCCN)C(C)C)[C@@H](C)CC)C(=O)N[C@@H](Cc1ccc(O)cc1)C(=O)N[C@H]1CSSC[C@@H](C(=O)N[C@@H](CCN)C(=O)N(CCN)CC(=O)N[C@@H](Cc2ccc(O)cc2)C(=O)O)NC(=O)[C@H](CCCCN)NC(=O)[C@@H](CCN)NC(=O)[C@H]([C@@H](C)O)NC(=O)[C@H](CCN)NC(=O)[C@H](CCCNC(=N)N)NC(=O)[C@H](CC(N)=O)NC1=O [Example 110] (HELM PEPTIDE1{K.K.P.V.P.I.I.Y.C.N.R.[Dab].T.[NCC[C@@H](N[*:1])C(=O)[*:2]].K.C.[Dab].[NCCN(CC(=O)[*:2])[*:1]].Y}$PEPTIDE1,PEPTIDE1,9:R3-16:R3$$$V2.0) | 0.125 mg/L | 0.125 mg/L | 0.125 mg/L | 0% |
| CC[C@H](C)[C@H](NC(=O)[C@@H](NC(=O)[C@@H]1CCCN1C(=O)[C@@H](NC(=O)[C@@H]1CCCN1C(=O)[C@H](CCCCN)NC(=O)[C@@H](N)CCCCN)C(C)C)[C@@H](C)CC)C(=O)N[C@@H](Cc1ccc(O)cc1)C(=O)N[C@H]1CSSC[C@@H](C(=O)N[C@@H](CCN)C(=O)N(CCCNC(=N)N)CC(=O)N[C@@H](Cc2ccc(O)cc2)C(=O)O)NC(=O)[C@H](CCCCN)NC(=O)[C@@H](CCN)NC(=O)[C@H]([C@@H](C)O)NC(=O)[C@H](CCN)NC(=O)[C@H](CCCNC(=N)N)NC(=O)[C@H](CC(N)=O)NC1=O [Example 111] (HELM PEPTIDE1{K.K.P.V.P.I.I.Y.C.N.R.[Dab].T.[NCC[C@@H](N[*:1])C(=O)[*:2]].K.C.[Dab].[N=C(N)NCCCN(CC(=O)[*:2])[*:1]].Y}$PEPTIDE1,PEPTIDE1,9:R3-16:R3$$$V2.0; N-terminus assumed) | 0.125 mg/L | 0.25 mg/L | 0.25 mg/L | 0% |
| CC[C@H](C)[C@H](NC(=O)[C@@H](NC(=O)[C@@H]1CCCN1C(=O)[C@@H](NC(=O)[C@@H]1CCCN1C(=O)[C@H](CCCCN)NC(=O)CNCCCCN)C(C)C)[C@@H](C)CC)C(=O)N[C@@H](Cc1ccc(O)cc1)C(=O)N[C@H]1CSSC[C@@H](C(=O)N[C@@H](CCN)C(=O)N[C@@H](CCCNC(=N)N)C(=O)N[C@@H](Cc2ccc(O)cc2)C(=O)O)NC(=O)[C@H](CCCCN)NC(=O)[C@@H](CCN)NC(=O)[C@H]([C@@H](C)O)NC(=O)CN(CCCCN)C(=O)[C@H](CCCNC(=N)N)NC(=O)[C@H](CC(N)=O)NC1=O [Example 112] (H-[Nlys]KPVPIIYCNR[Nlys]T[dDab]KC[Dab]RY-OH; disulfide 9-16) | 0.25 mg/L | 0.25 mg/L | 0.125 mg/L | 0% |
